Results on 11 compounds are retold here after patent US10233179B2, “Thiazoles and uses thereof” (AbbVie Inc., priority 2013, dated 2019).

Data set [1] has as its system RSV (Group A, Long Strain). As to the kind of experiment: Antiviral cytopathic effect (CPE) protection assay, MTT readout. The data set is classed as cell-based. The settings on record: human respiratory syncytial virus, 96 h; HEp-2 cells, 0.2 MOI RSV, 4 days incubation, protection from CPE by MTT. As for the experimental part: HEp-2 cells and RSV (Group A, Long Strain) were obtained from the American Type Culture Collection (Manassas, Va.).
A cytopathic effect (CPE) protection assay was performed to determine the ability of a compound to protect the cells from viral infection and thus the CPE induced by viral infection. 96-Well plates were first seeded with 3×10^3 HEp-2 cells per well in Dulbecco's modified Eagle's medium (DMEM) containing 10% fetal bovine serum (FBS). One day after the cells were seeded, they were preincubated with serial dilutions of compounds prepared in 100 μL assay medium (DMEM mixed with F12 medium at a 1:1 ratio, supplemented with 2% FBS and 1 mM sodium pyruvate) for 1 hour at 37° C. 100 μL of assay medium containing 0.2 multiplicity of infection (MOI) of RSV was then added to each well of cells. In addition to wells containing infected cells incubated with compounds, each plate also contained replicates of two kinds of controls: (1) Virus control contained cells infected with 0.2 MOI of RSV in assay medium, (2) Uninfected cell control contained cells incubated with assay medium only. After 4 days of incubation at 37° C., the viability of cells was assessed using MTT (Thiazolyl blue tetrazolium bromide, Sigma). A stock solution of MTT, at a concentration of 4 mg/mL in phosphate-buffered saline, was added to all wells at 25 μL per well. Plates were further incubated for 4 hours, and each well was then treated with 50 μL of a solution containing 20% sodium dodecyl sulfate (SDS) and 0.02 N HCl. After an overnight incubation, the plates were measured on a BioTek® microtiter plate reader at wavelengths of 570 nm and 650 nm. The MTT detection is based on the fact that viable (uninfected) cells can reduce the tetrazolium salts into colored formazan products, which can then be quantitated by spectrometry. Based on the spectrometric absorbance of each sample, the percent of protection from CPE, which is an indicator of protection from viral infection, can be calculated for each compound and the 50% effective concentrations (EC50) can be calculated using a nonlinear regression curve fitting equation provided by the GraphPad Prism® 4 software.
Compounds were tested to determine both their antiviral and toxicity to determine their therapeutic window. Determination of the EC50 and TD50 of these active compounds were repeated one additional time to confirm the window.

Another data set relates to HEp-2 cells. In words: Cytotoxicity assay (MTT) in parallel with the antiviral assay. In kind it is cell-based. The conditions noted are these: uninfected HEp-2 cells, 4 days incubation, MTT viability. On the procedure:
HEp-2 cells and RSV (Group A, Long Strain) were obtained from the American Type Culture Collection (Manassas, Va.). Cytotoxicity of the compounds was determined in experiments done in parallel with the antiviral assays. To do this, 100 μL of assay medium was added to the wells of HEp-2 cells pretreated with 100 μL serially diluted compounds as described above. After 4 days of incubation, the viability of the cells was determined by the MTT assay in the same way as detailed in the “Antiviral Assay” method. Results were expressed as 50% toxicity dose (TD50) values. Compounds were tested to determine both their antiviral and toxicity to determine their therapeutic window. Determination of the EC50 and TD50 of these active compounds were repeated one additional time to confirm the window.

pEC50: −log10 of the molar value. Some results are limits rather than exact numbers.

The term pEC50 denotes the EC50 on a negative log10 scale, so that one unit is a factor of ten. In the case of `Cc1c(C(C)N(Cc2cccn2-c2nccs2)Cc2cccn2-c2nccs2)cnn1-c1cccc(F)c1` (racemic) [Example 1, 1-[1-(3-fluorophenyl)-5-methyl-1H-pyrazol-4-yl]-N,N-bis{[1-(1,3-thiazol-2-yl)-1H-pyrrol-2-yl]methyl}ethanamine], the pEC50 in data set [1] is 6.92. Besides, the “MTT TD50” value with HEp-2 cells worked out at 11 µM.

Compound `Cc1c([C@H](C)N(Cc2cccn2-c2nccs2)Cc2cccn2-c2nccs2)cnn1-c1cccc(F)c1` [Example 2, (1S)-1-[1-(3-fluorophenyl)-5-methyl-1H-pyrazol-4-yl]-N,N-bis{[1-(1,3-thiazol-2-yl)-1H-pyrrol-2-yl]methyl}ethanamine] gave a pEC50 in data set [1] of 7.15. In the data set with HEp-2 cells, the “MTT TD50” value is >32 µM.

Consider `Cc1c([C@@H](C)N(Cc2cccn2-c2nccs2)Cc2cccn2-c2nccs2)cnn1-c1cccc(F)c1` [Example 3, (1R)-1-[1-(3-fluorophenyl)-5-methyl-1H-pyrazol-4-yl]-N,N-bis{[1-(1,3-thiazol-2-yl)-1H-pyrrol-2-yl]methyl}ethanamine], for which, in data set [1], the pEC50 was 6.02. Further, in the data set on HEp-2 cells, the “MTT TD50” value is >32 µM.

Regarding `COc1ccccc1CN(Cc1cccn1-c1nccs1)C(C)c1cnn(-c2cccc(F)c2)c1C` (stereo not shown) [Example 4, 1-[1-(3-fluorophenyl)-5-methyl-1H-pyrazol-4-yl]-N-(2-methoxybenzyl)-N-{[1-(1,3-thiazol-2-yl)-1H-pyrrol-2-yl]methyl}ethanamine], the pEC50 in data set [1] was < 6.32. Moreover, the “MTT TD50” value in the data set on HEp-2 cells was 0.48 µM.

With `Cc1c(C(C)N(Cc2ccc(Cl)cc2-c2ccnc(C(F)(F)F)n2)Cc2cccn2-c2nccs2)cnn1-c1cccc(F)c1` (stereo not shown) [Example 5, N-{4-chloro-2-[2-(trifluoromethyl)pyrimidin-4-yl]benzyl}-1-[1-(3-fluorophenyl)-5-methyl-1H-pyrazol-4-yl]-N-{[1-(1,3-thiazol-2-yl)-1H-pyrrol-2-yl]methyl}ethanamine], the pEC50 in data set [1] was < 6.96. Also, in the data set on HEp-2 cells, the “MTT TD50” value was 0.11 µM.

Consider `Cc1cccc(C)c1-n1ccc(CN(Cc2cccn2-c2nccs2)C(C)c2cnn(-c3cccc(F)c3)c2C)c1` (stereo not shown) [Example 6, N-{[1-(2,6-dimethylphenyl)-1H-pyrrol-3-yl]methyl}-1-[1-(3-fluorophenyl)-5-methyl-1H-pyrazol-4-yl]-N-{[1-(1,3-thiazol-2-yl)-1H-pyrrol-2-yl]methyl}ethanamine], for which the pEC50 in data set [1] is < 6.24. Further, the “MTT TD50” value in the data set with HEp-2 cells was determined as 0.57 µM.

On to `Cc1c(C(C)N(Cc2ncc(-c3ccccc3)n2C)Cc2ncc(-c3ccccc3)n2C)cnn1-c1cccc(F)c1` (stereo not shown) [Example 7, 1-[1-(3-fluorophenyl)-5-methyl-1H-pyrazol-4-yl]-N,N-bis[(1-methyl-5-phenyl-1H-imidazol-2-yl)methyl]ethanamine], for which, in data set [1], the pEC50 was 6.49. Further, in the data set with HEp-2 cells, the “MTT TD50” value is 5.2 µM.

With `COc1ccc(CN(Cc2cccn2-c2nncs2)Cc2cccn2-c2nncs2)c(OC)c1` [Example 8, 1-(2,4-dimethoxyphenyl)-N,N-bis{[1-(1,3,4-thiadiazol-2-yl)-1H-pyrrol-2-yl]methyl}methanamine], the pEC50 in data set [1] was 6.62. Moreover, in the data set with HEp-2 cells, the “MTT TD50” value was 22 µM.

Compound `Cn1nccc1N(Cc1cccn1-c1nncs1)Cc1cccn1-c1nncs1` [Example 9, 1-methyl-N,N-bis{[1-(1,3,4-thiadiazol-2-yl)-1H-pyrrol-2-yl]methyl}-1H-pyrazol-5-amine] gave a pEC50 in data set [1] of 5.31. Also, the “MTT TD50” value in the data set with HEp-2 cells is >32 µM.

With `c1ccc(CN(Cc2cccn2-c2nncs2)Cc2cccn2-c2nncs2)cc1` [Example 10, 1-phenyl-N,N-bis{[1-(1,3,4-thiadiazol-2-yl)-1H-pyrrol-2-yl]methyl}methanamine], the pEC50 in data set [1] is 6.28. The “MTT TD50” value in the data set with HEp-2 cells stood at 97 µM.

Take `c1cc(CN(Cc2cccn2-c2nncs2)CC2C[C@H]3CC[C@@H]2C3)n(-c2nncs2)c1` (stereo partly drawn) [Example 11, 1-[(1R,4S)-bicyclo[2.2.1]hept-2-yl]-N,N-bis{[1-(1,3,4-thiadiazol-2-yl)-1H-pyrrol-2-yl]methyl}methanamine]: the pEC50 in data set [1] is 6.25. In addition, the “MTT TD50” value with HEp-2 cells was 26 µM.
